# The NIST ThermoML archive (doi:10.1021/je0603067)
# ± gives the expanded uncertainty stated by the source.
# Details: Crystal; Heating/Cooling curves
row,Triple point temperature [K],Structure (SMILES)
1,216.56 ± 0.2,O=C=O [carbon dioxide]
2,181.99 ± 0.2,[N-]=[N+]=O [nitrous oxide]

row,Structure (SMILES),Triple point temperature [K]
1,FC(F)C(F)(F)F [pentafluoroethane],173.05 ± 0.2
